The values below come from US5214191A, “Oxidant sensitive and insensitive aromatic esters as inhibitors of human neutrophil elastase” (Cortech, Inc., priority 1990, dated 1993).

Values after ≈ are worked out from the molar mass of the structure shown. Read-outs that look alike come from different tables or passages of the source.

Series [1] has as its target alpha-chymotrypsin (α-CH) (Bos taurus, UniProt P00766). Nature of the series: Specificity determination, alpha-chymotrypsin, N-succinyl-ala-ala-pro-leu-pNA substrate. It counts as biochemical. To be noted: ratio of I50's (α-CH/HNE). The source says: (§1) Representative compounds according to the invention have been compared with a compound (Compound A) typifying the compounds described in U.S. Pat. […] The comparisons were directed towards potency (represented by the I50 's for human neutrophil elastase (HNE), porcine pancreatic elastase (PPE) and alpha-chymotrypsin (α-CH)), specificity (represented by the ratios of the I50 's (PPE/HNE and α-CH/HNE)) and the ability to inhibit the digestion of extracellular matrix by activated intact human neutrophils (expressed as a fraction of control) of the compounds listed. The following results were obtained (TABLE IV): Specificity Determination Reagents: 2) α-Chymotrypsin (α-CH) 1 mg/mL in 0.01M sodium acetate, pH 5.5. An aliquot of this stock solution is diluted 1:85 in 0.01M sodium acetate, 20% DMSO, 10 mM CaCl2, pH 5.5, 0.005% triton X-100 detergent. 4) α-CH substrate: N-succinyl-[…] 20 mM stock in DMSO. Inhibitor, substrate buffer: 0.1M tris-HCl, 0.01M CaCl2, 0.005% triton X-100, 20% DMSO, pH 7.7.

The target of series [2] is porcine pancreatic elastase (PPE) (Sus scrofa, UniProt P00772). Nature of the series: Specificity determination, porcine pancreatic elastase, N-succinyl-ala-ala-ala-pNA substrate. It counts as biochemical. To be noted: ratio of I50's (PPE/HNE).
Source text: as §1, with “1) Porcine Pancreatic Elastase (PPE)” for “2) α-Chymotrypsin (α-CH)”, “1:20” for “1:85”, “5.5. 3) PPE” for “5.5, 0.005% triton X-100 detergent. 4) α-CH”

Series [3] has as its target T1, human neutrophil elastase (HNE) (Homo sapiens, UniProt P08246).
T1 sequence (P08246 30-267): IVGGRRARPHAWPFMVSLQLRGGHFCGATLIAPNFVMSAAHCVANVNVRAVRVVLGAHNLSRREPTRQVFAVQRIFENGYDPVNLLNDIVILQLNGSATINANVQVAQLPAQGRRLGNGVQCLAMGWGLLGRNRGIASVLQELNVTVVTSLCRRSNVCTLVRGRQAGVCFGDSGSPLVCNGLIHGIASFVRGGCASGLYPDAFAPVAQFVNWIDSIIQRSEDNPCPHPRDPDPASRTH
Put plainly: Potency (I50 determination) against human neutrophil elastase, N-methoxysuccinyl-ala-ala-pro-val-pNA substrate. It counts as biochemical. The note with it: for potency relative to Compound A: in words, versus Compound A (pivaloyl group). As to the method:
Potency (I50 Determination)
A) 0.075M sodium phosphate, 20% dimethyl sulfoxide (DMSO), pH 7.7=substrateand inhibitor buffer
B) 0.075M sodium phosphate no DMSO, pH 7.7=inhibitor buffer
C) 10 mM human neutrophil elastase (HNE) substrate =N-methoxysuccinyl-ala-ala-pro-val-pNA in DMSO
D) 0.01M sodium acetate, 20% DMSO, pH 5.5=enzyme buffer (dilution)
E) 0.01M sodium acetate, pH 5.5=enzyme buffer (storage)
F) HNE (1 mg) dissolved in 1 mL of reagent E for storage at -20° C.
Make a 10 mM stock of the inhibitor in DMSO. Dilute an aliquot (10 μL) up to 1.0 mL in reagent A (100 μM). Serially dilute 100 μL of the 100 μM stock to 10.0, 1.0, 0.1, 0.01 μM in reagent A. Apply 100 μL of the diluted material to the wells of a 96-well plate. Dilute an aliquot of reagent F 1:150 in reagent D, apply 50 μL aliquots to the indicated wells and incubate for 7 minutes at room temperature.
The HNE substrate solution is made by taking 100 μL of reagent C into 500 μL of reagent A and 400 μL of reagent B. After the 7 minutes of incubation, the substrate (50 μL) is applied to each well. The HNE catalyzed reaction is then monitored spectrophotometrically at 405 nm using an ELISA plate reader machine (UVMAX, Molecular Devices) which processes the raw data with an on-board kinetics program. The enzyme activity is plotted against different inhibitor concentrations and the I50 value is determined by using a curve fitting software program. Once the "screening" I50 has been approximated, a more precise I50 value can be obtained by examination of inhibitor concentrations around this value.

Another series can be described thus: PBS solubility. The class given is physicochemical. To be noted: aqueous buffer.
Setting [4] is: Table IV, human neutrophil elastase, read-out: HNE I50.
[5] abbreviates: Table III, series with varied R4, read-out: I50.

Sequence of porcine pancreatic elastase (PPE) (P00772 27-266): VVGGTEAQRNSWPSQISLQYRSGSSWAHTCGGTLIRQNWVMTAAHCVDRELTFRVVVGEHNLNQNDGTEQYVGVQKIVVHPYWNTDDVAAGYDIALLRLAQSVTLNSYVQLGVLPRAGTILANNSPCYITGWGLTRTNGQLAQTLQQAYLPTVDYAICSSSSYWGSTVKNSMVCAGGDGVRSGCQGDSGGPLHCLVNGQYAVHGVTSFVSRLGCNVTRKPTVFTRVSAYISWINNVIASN

With `CCC(C(=O)Oc1ccc(S(C)(=O)=O)cc1)c1ccc2cc(OC)ccc2c1` (stereo not drawn) [Compound 384], the “α-Chymotrypsin (I50)/HNE(I50)” value in series [1] came out at 131.8. Besides, in series [2], the “PPE (I50)/HNE (I50)” value came to 29.1. Also, the IC50 in series [3] (setting [4]) worked out at 55 nM. Further, the “potency relative to Compound A” value in series [3] is reported as “improve potency relative to a compound bearing a simple pivaloyl group”.
The corresponding values for `CCC(C(=O)Oc1ccc(S(C)(=O)=O)cc1)c1ccc(OC)cc1` (stereo not drawn) [Compound 37, 4-Methylsulfonylphenyl 2-(4'-Methoxyphenyl)butyrate] are 106.2, 38.6, 31 nM and “improve potency relative to a compound bearing a simple pivaloyl group”.
Broadly, the solubility is the dissolved amount per volume that the medium holds. For `CCC(C(=O)Oc1ccc(SCC(C)(C)C(=O)O)cc1)c1ccccc1` (stereo not drawn) [SCH2 C(CH3)2 CO2 H], the solubility in “PBS solubility” is ≥ 2000 µg/mL. Besides, the IC50 in series [3] (setting [5]) is 892 nM.
The compound `CCC(C(=O)Oc1ccc(SC)cc1)c1ccccc1` (stereo not drawn) [SCH3] had a solubility in the series “PBS solubility” of 10 µg/mL (≈ 34.9 µM). In series [3] (setting [5]), the IC50 came out at 9000 nM.
Take `CCC(C(=O)Oc1ccc([S+]([O-])CC(C)(C)C(=O)O)cc1)c1ccccc1` (stereo not drawn) [S(O)CH2 C(CH3)2 CO2 H]: the solubility in the series “PBS solubility” was ≥ 2000 µg/mL. In addition, the IC50 in series [3] (setting [5]) is 357 nM.
The corresponding values for `CCC(C(=O)Oc1ccc(S(=O)(=O)CC(C)(C)C(=O)O)cc1)c1ccccc1` (stereo not drawn) [S(O2)CH2 C(CH3)2 CO2 H] are ≥ 2000 µg/mL and 141 nM.
The like results for `CCC(C(=O)Oc1ccc(S(C)(=O)=O)cc1)c1ccccc1` (stereo not drawn) [S(O)2 CH3] were, in that order, 10 µg/mL (≈ 31.4 µM) and 100 nM.
`CCC(C(=O)Oc1ccc(S(C)(=O)=O)cc1)c1ccccc1` (stereo not drawn) [Compound 3]: the “α-Chymotrypsin (I50)/HNE(I50)” value in series [1] stood at 176.0. Moreover, the “PPE (I50)/HNE (I50)” value in series [2] worked out at 129.6. The IC50 in series [3] (setting [4]) was 25 nM. Further, the “potency relative to Compound A” value in series [3] was “improve potency relative to a compound bearing a simple pivaloyl group”.
As for `CC(C)(C)C(=O)Oc1ccc(S(C)(=O)=O)cc1` [Compound A, reference compound], the “α-Chymotrypsin (I50)/HNE(I50)” value in series [1] is given as 146.10. Besides, in series [2], the “PPE (I50)/HNE (I50)” value stood at 18.84. Besides, the IC50 in series [3] (setting [4]) came out at 129 nM.
For `CCC(C(=O)Oc1ccc([S+](C)[O-])cc1)c1ccccc1` (stereo not drawn) [S(O)CH3], the concentration in solution in the series “PBS solubility” (solubility) came to 600 µg/mL (≈ 1980 µM). Also, in series [3] (setting [5]), the IC50 is 600 nM.
